Literature values, collected in patent publication US20080234352A1, “Controlled release solid dispersions” (EGALET A/S, priority 2001, published 2008).
Like-named read-outs stand apart in the source and are kept apart here.

Tests used:
[1] = not given; remark: listed apart in the source

In the case of `O=C(O)CC(C(=O)O)C(CC(=O)O)C(=O)O` (stereo not drawn) [Butane-1,2,3,4-tetracarboxylic], the pKa (pKa2) is given as 4.38, the pKa (pKa3) is given as 5.45 and the pKa (pKa4) is given as 6.63.

For `O=S(=O)(O)CCN1CCN(CCS(=O)(=O)O)CC1` [PIPES, 1,4-Piperazinebis-(ethanesulfonic acid)], the pKa (pKa3) is listed as 3.00 and the pKa (pKa4) is listed as 6.8.

In the case of `O=C(O)c1cccc(C(=O)O)c1C(=O)O` [Benzene-1,2,3-tricarboxylic (hemimellitic)], the pKa (pKa1) is listed as 2.98, the pKa (pKa2) is listed as 4.25 and the pKa (pKa3) is listed as 5.87.

In the case of `O=C(O)c1ccccc1C(=O)O` [Phthalic], the pKa (no step given) is listed as 2.90.

For `O=C(O)C(O)c1ccccc1` (stereo not drawn) [Mandelic], the pKa (no step given) is given as 3.36.

In the case of `COc1cc2c(cc1OC)[C@@]13CCN4CC5=CCO[C@H]6CC(=O)N2[C@H]1[C@H]6[C@H]5C[C@H]43.O.O.O.O` [Brucine tetrahydrate], the pKa (pKa1) is given as 2.30 and the pKa (pKa2) is given as 7.95.

For `O=S(=O)(O)CCCNC1CCCCC1` [CAPS, 3-Cyclohexylamino-I-propanesulfonic acid], the pKa (pKa2) is given as 10.40.

For `O=C(O)CC1(CC(=O)O)CCCC1` [I,I-Cyclopentanediacetic, I,I-Cyclopentanediacetic (3,3 tetramethylene glutaric acid)], the pKa (pKa1) is listed as 3.82 and the pKa (pKa2) is listed as 6.70.

For `O=S(=O)(O)CCCN1CCN(CCO)CC1` [EPPS, 4-(2-Hydroxyethyl)-I-piperazinepropane sulfonic acid], the pKa (no step given) is listed as 8.00.

For `CN(C)C` [Trimethylamine], the pKa (no step given) is given as 9.74.

In the case of `C=C(CC(=O)O)C(=O)O` [Itaconic], the pKa (pKa1) is given as 3.84 and the pKa (pKa2) is given as 5.55.

For `CC(CC(=O)O)(CC(=O)O)C(=O)O` [2-Methylpropane-1,2,3-triscarboxylic], the pKa (pKa2) is given as 5.02 and the pKa (pKa3) is given as 7.20.

For `O=C(O)CC(O)C(=O)O` (stereo not drawn) [Malic], the pKa (pKa1) is given as 3.40 and the pKa (pKa2) is given as 5.05.

In the case of `O=C(O)c1cc(C(=O)O)cc(C(=O)O)c1` [Benzene-1,3,5-tricarboxylic (trimesic)], the pKa (pKa1) is listed as 3.16, the pKa (pKa2) is listed as 3.98 and the pKa (pKa3) is listed as 4.85.

In the case of `COc1ccccc1OCCNCC(O)COc1cccc2[nH]c3ccccc3c12` (racemic) [Carvedilol], the “alpha-mediated vasodilatory effects (decreased peripheral resistance and blood pressure) evident within” value ([1]; administration of an IR formulation) is given as ≤ 30 min, the binding to plasma ([1]; in vivo) is given as “highly bound” and the “dose excreted unchanged in the urine” value ([1]; in vivo) is given as “less than 2%”. The dose linearity range ([1]; literature) was 6.25 to 50 mg, the “time to peak plasma concentrations” value ([1]; oral administration) was “one to two” and the “absorption in the large intestine, share of the total absorption” value ([1]; timed-release capsules, study by Nolte et al) was “approximately 10%”.

In the case of `O=C(O)c1cc(C(=O)O)c(C(=O)O)c(C(=O)O)c1C(=O)O` [Benzenepentacarboxylic], the pKa (pKa2) is given as 2.95, the pKa (pKa3) is given as 3.94 and the pKa (pKa4) is given as 5.07. For the same compound, the pKa (pKa5) was 6.25.

In the case of `O=C(O)c1cc(C(=O)O)c(C(=O)O)cc1C(=O)O` [Benzene-1,2,4,5-tetracarboxylic (pyromellitic)], the pKa (pKa1) is given as 2.43, the pKa (pKa2) is given as 3.13 and the pKa (pKa3) is given as 4.44. For the same compound, the pKa (pKa4) was 5.61.

In the case of `O=S(=O)(O)CCCNC(CO)(CO)CO` [TAPS, N-Tris(hydroxymethyl)methyl-2-aminopropane suifonic acid], the pKa (pKa2) is listed as 8.40.

For `CN` [Methylamine], the pKa (no step given) is given as 10.64.
